Results on 1 compound are retold here after patent publication US7595345B2, “Vitamin D receptor modulators” (Eli Lilly and Company, priority 2003, dated 2009).

For orientation: IC50 means the concentration that gives 50% inhibition.

This test deals with KERtr cells. Put plainly: Keratinocyte proliferation assay. To be noted: Homo sapiens, 72 hr, BrdU incorporation, read-out: Kera. Prolif. IC50. In kind it is cell-based. On the procedure: 5. The Keratinocyte Proliferation Assay
This Assay is indicative for the treatment of psoriasis.
(5) The Keratinocyte Proliferation Assay:
KERtr cells (Human skin keratinocyte transformed with a retrovirus vector, obtained from ATCC) were plated in 96-well flat-bottomed plates (3000 cells/well) in 100 µl keratinocyte serum free medium supplemented with bovine pituitary extract in the absence of EGF (Life Technologies, Rockville, Md.) and incubated at 37° C. for two days. The cells were treated with various concentrations of VDR ligands (ten-fold serial dilution from 10,000 nM to 0.1 nM in triplicate), dissolved in 100 µl keratinocyte serum free medium supplemented with bovine pituitary extract in the absence of EGF and incubated at 37° C. for 72 hr. BrdU (5-bromo-2′-deoxyuridine) incorporation was analyzed as a measure of DNA replication (Cell proliferation ELISA kit, Roche Diagnostics, Indianapolis, Ind.) and absorbance was measured at 405 nm. Potency values (IC50) values were determined as the concentration (nM) of compound that elicited a half-maximal response.
Background: Uptake of a labelled nucleoside into DNA is a usual measure of proliferation.

For `CCC(O)(CC)COc1ccc(C(CC)(CC)c2ccc(C(=O)NCC(=O)O)c(C)c2)cc1C` [Ex. 3, (4-{1-ethyl-1-[4-(2-ethyl-2-hydroxy-butoxy)-3-methyl-phenyl]-propyl}-2-methyl-benzoylamino)-acetic acid], the IC50 amounted to 121 nM.
